The values that follow come from ChEMBL document CHEMBL1127149, “The squalestatins: potent inhibitors of squalene synthase. The role of the tricarboxylic acid moiety” (Bioorg Med Chem Lett, 1993).

In the first assay the target is T1, Squalene synthase (Rattus norvegicus, UniProt Q02769).
T1 sequence (Q02769 whole entry): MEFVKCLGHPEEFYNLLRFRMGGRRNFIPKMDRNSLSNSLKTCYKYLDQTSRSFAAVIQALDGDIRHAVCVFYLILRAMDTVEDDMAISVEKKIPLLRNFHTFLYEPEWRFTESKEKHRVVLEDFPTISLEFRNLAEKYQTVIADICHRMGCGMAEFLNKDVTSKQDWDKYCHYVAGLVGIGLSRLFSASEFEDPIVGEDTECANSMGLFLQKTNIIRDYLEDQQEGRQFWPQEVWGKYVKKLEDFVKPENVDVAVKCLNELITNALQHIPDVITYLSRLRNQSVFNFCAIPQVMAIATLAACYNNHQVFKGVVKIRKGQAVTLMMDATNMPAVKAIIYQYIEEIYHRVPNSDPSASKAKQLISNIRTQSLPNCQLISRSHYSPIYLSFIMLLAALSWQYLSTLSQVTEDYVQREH
The assay can be described thus: In vitro inhibitory activity measured against rat squalene synthase(SQS) enzyme.
Details: not given
The term IC50 denotes the concentration that gives 50% inhibition. A high value points to weaker potency. Consider `C=C(CC[C@]12O[C@H](C(=O)O)[C@@](O)(C(=O)OC)[C@](C(=O)OC)(O1)[C@H](OC(=O)/C=C/[C@@H](C)C[C@@H](C)CC)[C@H]2O)[C@@H](OC(C)=O)[C@H](C)Cc1ccccc1`, for which the IC50 was over 500 nM.
On the same count and under the same terms, next, `C=C(CC[C@]12O[C@H](C(=O)OC)[C@@](O)(C(=O)O)[C@](C(=O)OC)(O1)[C@H](OC(=O)/C=C/[C@@H](C)C[C@@H](C)CC)[C@H]2O)[C@@H](OC(C)=O)[C@H](C)Cc1ccccc1`: over 500 nM; `C=C(CC[C@]12O[C@H](C(=O)O)[C@@](O)(C(=O)O)[C@](C(=O)OC)(O1)[C@H](OC(=O)/C=C/[C@@H](C)C[C@@H](C)CC)[C@H]2O)[C@@H](OC(C)=O)[C@H](C)Cc1ccccc1`: over 500 nM.
Still for that read-out and setting: with `C=C(CC[C@]12O[C@H](C(=O)OC)[C@@](O)(C(=O)OC)[C@](C(=O)OC)(O1)[C@H](OC(=O)/C=C/[C@@H](C)C[C@@H](C)CC)[C@H]2O)[C@@H](OC(C)=O)[C@H](C)Cc1ccccc1` the figure was over 500 nM; with `C=C(CC[C@]12O[C@H](C(=O)O)[C@@](O)(C(=O)OC)[C@](C(=O)O)(O1)[C@H](O)[C@H]2O)[C@@H](OC(C)=O)[C@H](C)Cc1ccccc1`, 355 nM.
Still for that read-out and setting: next, `C=C(CC[C@]12O[C@H](C(=O)OC)[C@@](O)(C(=O)OC)[C@](C(=O)O)(O1)[C@H](OC(=O)/C=C/[C@@H](C)C[C@@H](C)CC)[C@H]2O)[C@@H](OC(C)=O)[C@H](C)Cc1ccccc1`: 134 nM.
On to `C=C(CC[C@]12O[C@H](C(=O)O)[C@@](O)(C(=O)O)[C@](C(=O)OC)(O1)[C@H](O)[C@H]2O)[C@@H](OC(C)=O)[C@H](C)Cc1ccccc1`, for which the IC50 is over 500 nM.
On the same count and under the same terms, with `C=C(CC[C@]12O[C@H](C(=O)OC)[C@@](O)(C(=O)O)[C@](C(=O)O)(O1)[C@H](O)[C@H]2O)[C@@H](OC(C)=O)[C@H](C)Cc1ccccc1` the figure was 220 nM.

The species named for a further assay is Rattus norvegicus. Briefly: Inhibitory activity of compound was measured against cholesterol biosynthesis from [14C]- acetate by isolated rat hepatocytes. In kind it is functional. The settings on record: Hepatocyte.
Turning to `C=C(CC[C@]12O[C@H](C(=O)O)[C@@](O)(C(=O)O)[C@](C(=O)O)(O1)[C@H](OC(=O)/C=C/[C@@H](C)C[C@@H](C)CC)[C@H]2O)[C@@H](OC(C)=O)[C@H](C)Cc1ccccc1` [ZARAGOZIC ACIDS A], the IC50 came to 39 nM.
